Data: patent US7902373B2 (Pfizer Inc, priority 2006, dated 2011)

target: human recombinant H-PGDS (Homo sapiens, UniProt O60760); assay: Fluorescence intensity h-PGDS TBA enzyme assay; format: biochemical; details: Examples up to 622 (and 3a, 3b)
Sequence (O60760 whole entry): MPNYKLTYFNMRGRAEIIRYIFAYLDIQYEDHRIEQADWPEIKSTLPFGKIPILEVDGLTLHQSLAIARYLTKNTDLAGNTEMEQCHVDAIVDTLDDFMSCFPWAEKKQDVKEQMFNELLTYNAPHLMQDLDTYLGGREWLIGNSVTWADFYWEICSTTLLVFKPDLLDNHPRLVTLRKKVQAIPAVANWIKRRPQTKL

| SMILES | IC50 [nM] |
| --- | --- |
| Cc1c(CN2CCC(NC(=O)c3ccc(-c4cccc(F)c4)nc3)CC2)cnn1C [Example 287, N-{1-[(1,5-dimethyl-1H-pyrazol-4-yl)methyl]piperidin-4-yl}-6-(3-fluorophenyl)nicotinamide] | 3 |
| O=C(NC1CCN(Cc2cnc(-c3ccccc3)s2)CC1)c1ccc(-c2cccc(F)c2)nc1 [Example 289, 6-(3-Fluorophenyl)-N-{1-[(2-phenyl-1,3-thiazol-5-yl)methyl]piperidin-4-yl}nicotinamide] | 2.09 |
| O=C(NC1CCN(Cc2c[nH]cn2)CC1)c1ccc(-c2cccc(F)c2)nc1 [Example 294, 6-(3-Fluorophenyl)-N-[1-(1H-imidazol-4-ylmethyl)piperidin-4-yl]nicotinamide] | 1.76 |
| Cc1nc[nH]c1CN1CCC(NC(=O)c2ccc(-c3cccc(F)c3)nc2)CC1 [Example 296, 6-(3-Fluorophenyl)-N-{1-[(4-methyl-1H-imidazol-5-yl)methyl]piperidin-4-yl}nicotinamide] | 1.4 |
| O=C(NC1CCN(Cc2ccc3[nH]ccc3c2)CC1)c1ccc(-c2cccc(F)c2)nc1 [Example 304, 6-(3-Fluorophenyl)-N-[1-(1H-indol-5-ylmethyl)piperidin-4-yl]nicotinamide] | 2.11 |
| COc1cc(C)cc(OC)c1CN1CCC(NC(=O)c2ccc(-c3cccc(F)c3)nc2)CC1 [Example 305, N-[1-(2,6-Dimethoxy-4-methylbenzyl)piperidin-4-yl]-6-(3-fluorophenyl)nicotinamide] | 2.7 |
| CCOc1cc(OC)ccc1CN1CCC(NC(=O)c2ccc(-c3cccc(F)c3)nc2)CC1 [Example 306, N-[1-(2-Ethoxy-4-methoxybenzyl)piperidin-4-yl]-6-(3-fluorophenyl)nicotinamide] | 2.71 |
| N#Cc1ccc(Oc2ccc(CN3CCC(NC(=O)c4ccc(-c5cccc(F)c5)nc4)CC3)cn2)cc1 [Example 308, N-(1-{[6-(4-Cyanophenoxy)pyridin-3-yl]methyl}piperidin-4-yl)-6-(3-fluorophenyl)nicotinamide] | 2.03 |
| O=C(NC1CCN(CC2=C(Cl)c3cc(F)ccc3OC2)CC1)c1ccc(-c2cccc(F)c2)nc1 [Example 309, N-(1-[(4-Chloro-6-fluoro-2H-chromen-3-yl)methyl]piperidin-4-yl)-6-(3-fluorophenyl)nicotinamide] | 4.32 |
| O=C(NC1CCN(Cc2cc(=O)[nH]c(=O)[nH]2)CC1)c1ccc(-c2cccc(F)c2)nc1 [Example 310, N-{1-[(2,6-Dioxo-1,2,3,6-tetrahydropyrimidin-4-yl)methyl]piperidin-4-yl)-6-(3-fluorophenyl)nicotinamide] | 4.78 |
| COC(=O)c1ccc2[nH]cc(CN3CCC(NC(=O)c4ccc(-c5cccc(F)c5)nc4)CC3)c2c1 [Example 311, Methyl 3-{[4-({[6-(3-fluorophenyl)pyridin-3-yl]carbonyl}amino)piperidin-1-yl]methyl}-1H-indole-5-carboxylate] | 1.72 |
| O=C(NC1CCN(Cc2ccc3c(c2)CCO3)CC1)c1ccc(-c2cccc(F)c2)nc1 [Example 313, N-[1-(2,3-Dihydro-1-benzofuran-5-ylmethyl)piperidin-4-yl]-6-(3-fluorophenyl)nicotinamide] | 2.15 |
| CCOc1c(CN2CCC(NC(=O)c3ccc(-c4cccc(F)c4)nc3)CC2)cccc1OC [Example 316, N-[1-(2-Ethoxy-3-methoxybenzyl)piperidin-4-yl]-6-(3-fluorophenyl)nicotinamide] | 1.36 |
| O=C(NC1CCN(Cc2ccc(C(F)(F)F)nc2)CC1)c1ccc(-c2cccc(F)c2)nc1 [Example 317, 6-(3-Fluorophenyl)-N-(1-{[6-(trifluoromethyl)pyridin-3-yl]methyl}piperidin-4-yl)nicotinamide] | 2.07 |
| O=C(NC1CCN(Cc2c[nH]c(-c3ccccc3)n2)CC1)c1ccc(-c2cccc(F)c2)nc1 [Example 320, 6-(3-Fluorophenyl)-N-{1-[(2-phenyl-1H-imidazol-4-yl)methyl]piperidin-4-yl}nicotinamide] | 2.34 |
| CCCCCN1CCC(NC(=O)c2ccc(-c3cccc(F)c3)nc2)CC1 [Example 325, 6-(3-Fluorophenyl)-N-(1-pentylpiperidin-4-yl)nicotinamide] | 4.01 |
| CC(C)Oc1ccccc1CN1CCC(NC(=O)c2ccc(-c3cccc(F)c3)nc2)CC1 [Example 326, 6-(3-Fluorophenyl)-N-[1-(2-isopropoxybenzyl)piperidin-4-yl]nicotinamide] | 2.45 |

Stronger by IC50, values ahead:

| IC50 [nM] | SMILES |
| --- | --- |
| 1.25 | O=C(NC1CCN(Cc2ccc3nsnc3c2)CC1)c1ccc(-c2cccc(F)c2)nc1 [Example 288, N-[1-(2,1,3-Benzothiadiazol-5-ylmethyl)piperidin-4-yl]-6-(3-fluorophenyl)nicotinamide] |
| 0.843 | O=C(NC1CCN(Cc2ccc3ncccc3c2)CC1)c1ccc(-c2cccc(F)c2)nc1 [Example 290, 6-(3-Fluorophenyl)-N-[1-(quinolin-6-ylmethyl)piperidin-4-yl]nicotinamide] |
| 1.17 | CCOc1cccc(CN2CCC(NC(=O)c3ccc(-c4cccc(F)c4)nc3)CC2)c1 [Example 291, N-[1-(3-Ethoxybenzyl)piperidin-4-yl]-6-(3-fluorophenyl)nicotinamide] |
| 0.465 | O=C(NC1CCN(Cc2ccccc2OC(F)F)CC1)c1ccc(-c2cccc(F)c2)nc1 [Example 292, N-{1-[2-(Difluoromethoxy)benzyl]piperidin-4-yl}-6-(3-fluorophenyl)nicotinamide] |
| 0.592 | CC(CCC#N)(CN1CCC(NC(=O)c2ccc(-c3cccc(F)c3)nc2)CC1)c1ccccc1 (stereo not shown) [Example 293, N-[1-(4-Cyano-2-methyl-2-phenylbutyl)piperidin-4-yl]-6-(3-fluorophenyl)nicotinamide] |
| 0.506 | COc1ccc(F)cc1CN1CCC(NC(=O)c2ccc(-c3cccc(F)c3)nc2)CC1 [Example 295, N-[1-(5-Fluoro-2-methoxybenzyl)piperidin-4-yl]-6-(3-fluorophenyl)nicotinamide] |
| 1.25 | COc1cc(CN2CCC(NC(=O)c3ccc(-c4cccc(F)c4)nc3)CC2)cc(OC)c1 [Example 297, N-[1-(3,5-Dimethoxybenzyl)piperidin-4-yl]-6-(3-fluorophenyl)nicotinamide] |
| 0.939 | CC(C)(C)CCN1CCC(NC(=O)c2ccc(-c3cccc(F)c3)nc2)CC1 [Example 298, N-[1-(3,3-Dimethylbutyl)piperidin-4-yl]-6-(3-fluorophenyl)nicotinamide] |
| 0.308 | O=C(NC1CCN(Cc2ccccc2Cl)CC1)c1ccc(-c2cccc(F)c2)nc1 [Example 299, N-[1-(2-Chlorobenzyl)piperidin-4-yl]-6-(3-fluorophenyl)nicotinamide] |
| 0.362 | O=C(NC1CCN(Cc2ncc[nH]2)CC1)c1ccc(-c2cccc(F)c2)nc1 [Example 300, 6-(3-Fluorophenyl)-N-[1-(1H-imidazol-2-ylmethyl)piperidin-4-yl]nicotinamide] |
| 1.16 | O=C(NC1CCN(CCCc2ccccc2)CC1)c1ccc(-c2cccc(F)c2)nc1 [Example 301, 6-(3-Fluorophenyl)-N-[1-(3-phenylpropyl)piperidin-4-yl]nicotinamide] |
| 0.636 | Cc1cc(CN2CCC(NC(=O)c3ccc(-c4cccc(F)c4)nc3)CC2)ccc1F [Example 302, N-[1-(4-Fluoro-3-methylbenzyl)piperidin-4-yl]-6-(3-fluorophenyl)nicotinamide] |
| 0.662 | N#Cc1cc(CN2CCC(NC(=O)c3ccc(-c4cccc(F)c4)nc3)CC2)ccc1F [Example 303, N-[1-(3-Cyano-4-fluorobenzyl)piperidin-4-yl]-6-(3-fluorophenyl)nicotinamide] |
| 0.784 | Cc1ccc(-c2n[nH]cc2CN2CCC(NC(=O)c3ccc(-c4cccc(F)c4)nc3)CC2)cc1 [Example 307, 6-(3-Fluorophenyl)-N-(1-{[3-(4-methylphenyl)-1H-pyrazol-4-yl]methyl}piperidin-4-yl)nicotinamide] |
| 1.08 | O=C(NC1CCN(CCCC(F)(F)F)CC1)c1ccc(-c2cccc(F)c2)nc1 [Example 312, 6-(3-Fluorophenyl)-N-[1-(4,4,4-trifluorobutyl)piperidin-4-yl]nicotinamide] |
| 0.24 | Cn1nc(C(F)(F)F)c(CN2CCC(NC(=O)c3ccc(-c4cccc(F)c4)nc3)CC2)c1Cl [Example 314, N-(1-{[5-Chloro-1-methyl-3-(trifluoromethyl)-1H-pyrazol-4-yl]methyl}piperidin-4-yl)-6-(3-fluorophenyl)nicotinamide] |
| 0.549 | O=C(NC1CCN(Cc2cccc(OC(F)F)c2)CC1)c1ccc(-c2cccc(F)c2)nc1 [Example 315, N-{1-[3-(Difluoromethoxy)benzyl]piperidin-4-yl}-6-(3-fluorophenyl)nicotinamide] |
| 1.18 | Cc1ccc(CN2CCC(NC(=O)c3ccc(-c4cccc(F)c4)nc3)CC2)c(F)c1F [Example 318, N-[1-(2,3-Difluoro-4-methylbenzyl)piperidin-4-yl]-6-(3-fluorophenyl)nicotinamide] |
| 0.384 | Cc1nn(C)c(Cl)c1CN1CCC(NC(=O)c2ccc(-c3cccc(F)c3)nc2)CC1 [Example 319, N-{1-[(5-Chloro-1,3-dimethyl-1H-pyrazol-4-yl)methyl]piperidin-4-yl}-6-(3-fluorophenyl)nicotinamide] |
| 0.365 | Cn1cc(Br)c(CN2CCC(NC(=O)c3ccc(-c4cccc(F)c4)nc3)CC2)n1 [Example 321, N-{1-[(4-Bromo-1-methyl-1H-pyrazol-3-yl)methyl]piperidin-4-yl}-6-(3-fluorophenyl)nicotinamide] |
| 0.748 | COc1ccc(CCCN2CCC(NC(=O)c3ccc(-c4cccc(F)c4)nc3)CC2)cc1 [Example 322, 6-(3-Fluorophenyl)-N-{1-[3-(4-methoxyphenyl)propyl]piperidin-4-yl}nicotinamide] |
| 0.622 | COc1ccc(F)c(CN2CCC(NC(=O)c3ccc(-c4cccc(F)c4)nc3)CC2)c1 [Example 323, N-[1-(2-Fluoro-5-methoxybenzyl)piperidin-4-yl]-6-(3-fluorophenyl)nicotinamide] |
| 0.531 | COc1ccc(CN2CCC(NC(=O)c3ccc(-c4cccc(F)c4)nc3)CC2)c(F)c1 [Example 324, N-[1-(2-Fluoro-4-methoxybenzyl)piperidin-4-yl]-6-(3-fluorophenyl)nicotinamide] |
